According to patent US6022307A, “Substituted dibenzothiophenes having antiangiogenic activity” (American Cyanamid Company, priority 1999, dated 2000):
Counter-ions that a name gives are not always drawn.

What was measured:
[1] = system: VEGF 165-induced vascular permeability; experiment: Inhibition of Vascular Permeability Assay (Miles Assay); assay type: in vivo, BALB/c female mice; conditions: 100 mg/kg, PO
Experimental: Inhibition of Vascular Permeability Assay (Miles Assay) This assay was performed using BALB/c female mice (Charles River, Wilmington, Mass.). Both sides of the animals were shaved between 24 and 48 hours before the start of the assay. There were 10 animals per experimental group. […] One half hour later the animals were sacrificed by CO2 inhalation. […] Data was statistically analyzed via Student-t-test. A p-value (p≤0.05) indicates a statistically significant difference between the area of vascular permeability of the vehicle control verses the experimental group. Data was statistically analyzed via Student-t-test of Log Relative Area of Permiability. A p-value (p≤0.05) indicates a statistically significant reduction in permeability of Treated Group, compared to Placebo Control.

[2] = system: corneal neovascularization; experiment: Corneal Neovascularization Model; assay type: in vivo, mice; conditions: 100 mg/kg, PO, days 1-10
Experimental: Corneal Neovascularization Model
The sustained release preparations of angiogenic agents (ELVAX pellet) were prepared by solvent casting. […] The solvent was then evaporated, leaving the angiogenic agent in the polymeric matrix
Mice were anesthetized using a 1-1.5 ml/kg solution containing a mixture of 70% ketamine hydrochloride (100 mg/ml) and 30% xylazine (20 mg/ml). Using sterile surgical technique, an ELVAX pellet containing either basic FGF (100 ng) or VEGF (400 ng) was implanted into a previously dissected intrastromal corneal pocket 0.5 mm from the corneoscleral limbus. Following implantation the implantation site margins were reapposed and the eyes were treated with topical antibiotic ointment (bacitracin/neomycin/polymixin). On various days (between postoperative days 4 and 18) the extent of neovascularization was measured.
Neovascularization was monitored by measurements of new vessel growth within the previously avascular cornea. This parameter was obtained by measuring with calipers under microscopic magnification the length of the base of the neovascular bed at the limbus. The area of neovascularization,which is typically triangular, was calculated by dividing the product of the length of the vessel and the base length by two. Data was statistically analyzed via Student-t-test of Log Relative Reduction of Neovascularization. A p-value (p≤0.05) indicates a statistically significant reduction in neovascularization of Treated Group, compared to Placebo Control.

Experimental for KDR: Inhibition of Binding of VEGF 165 to KDR & Flt-1 Receptors as Measured by SPA Assay
Preparation of conditioned media containing the KDR-Fc soluble VEGF receptor.:
Human 293KDR2 cells, which secrete a soluble KDR-Fc fusion protein, were grown in Dulbecco's Modified Eagle Medium supplemented with 10% fetal calf serum, 2 mM glutamine, 10 units/ml penicillin G sulfate, 10 μg/ml streptomycin sulfate and 175 μg/ml geneticin (G418) sulfate. Cells were plated at a density of 10^6 cells/100 mm dish and incubated at 37° C. in a humidified atmosphere containing 95% air and 5% CO2. After 10 days, conditioned medium was collected and centrifuged at 15,000 rpm for 15 min to remove dead cells. A total of 0.1 volume of 1.15% gelatin and 0.02 volume of 1M HEPES buffer (pH 8) was added. Leupeptin and pepstatin A were added to 1 μg/ml each.
Preparation of ^125 I-labelled VEGF ligand:
Recombinant human ^125 T-labelled VEGF 165 was purchased from Amersham (3,800 cpm/fmol). ^125,-labelled VEGF was diluted in DMEM supplemented with gelatin (0.15%) and HEPES buffer (20 mM) to a final concentration of 40,000 cpm/25 μl.
Preparation of SPA beads:
SPA PVT antibody-binding beads were purchased from Amersham. Each bottle of SPA beads (500 mg) was reconstituted in 25 ml of DMEM supplemented with gelatin (0.15%) and HEPES buffer (20 mM). The bottle contents were well mixed (15 min with a stir bar at room temperature).
SPA assays were performed in flat-bottom polystyrene 96 well microtitre plates.
(a) Pipette 50 μl of SPA beads to well.
(b) Pipette 25 μl of conditioned medium to well.
(d) Pipette 25 μl of ^125 J-VEGF 165 to well.
The appropriate control wells were set up to measure non-specific binding, solvent effect, etc. The assays were run in duplicate or triplicate wells. Plates were sealed and incubate at room temperature without shaking for 5 to 20 hours. Plates were then counted in a Packard TopCount microtitre plate liquid scintillation counter.
A typical assay gave 3,000 to 6,000 cpm bound. Background binding (measured in the presence of 100-fold molar excess of unlabelled VEGF 165) was typically 200 to 300 cpm bound. Compounds were tested at 30, 10, 3, 1, 0.3 and 0.1 μg/ml in DMSO. […] Half maximal binding was determined by the following equation:
s=maximal cpm bound in the absence of compound.
The IC50 values were determined graphically by the following procedure:
A graph was drawn plotting compound concentration (x-axis) versus cpm bound (y-axis).
The half maximal binding was calculated using the equation above.
A horizontal line (LINE A) was drawn which intersects the y-axis at the half maximal binding value.
A vertical line (LINE B) was drawn through the point where LINE A intersects the inhibition curve.
The point where LINE B intersects the x-axis was extrapolated from the graph to give the IC50 value.

COc1ccc2cc(C(=O)Nc3cc4c(cc3S(=O)(=O)O)-c3cc(S(=O)(=O)O)c(NC(=O)c5cc6ccc(OC)cc6oc5=O)cc3S4(=O)=O)c(=O)oc2c1 [Example 47, 3,7-Bis-[(7-methoxy-2-oxo-benzopyran-3-yl)-carbonylamino]-5,5-dioxo-5H-5^6-dibenzothiophene-2,8-disulfonic acid, disodium salt]
% Control ([1]; 4 hr prior to VEGF): 71% | Lesion Area (measured area of vascular permeability) ([1]; 4 hr prior to VEGF): 32.8 mm^2 | IC50 (KDR): 0.5 µg/mL

O=C(Nc1cc2c(cc1S(=O)(=O)O)-c1cc(S(=O)(=O)O)c(NC(=O)c3cc4ccccc4o3)cc1S2(=O)=O)c1cc2ccccc2o1 [Example 42, 3,7-Bis[(benzo[b]furan-2-carbonyl)amino]-5,5-dioxo-5H-5^6-dibenzothiophene-2,8-disulfonic acid, disodium salt]
% Control ([1]; 2 hr prior to VEGF): 74% | Lesion Area (measured area of vascular permeability) ([1]; 2 hr prior to VEGF): 40.0 mm^2 | Lesion Area (measured area of vascular permeability) ([1]; 2 hr prior to VEGF, disodium salt): 33.5 mm^2 | % Control ([1]; 4 hr prior to VEGF): 69% | Lesion Area (measured area of vascular permeability) ([1]; 4 hr prior to VEGF): 31.1 mm^2 | IC50 (KDR): 0.6 µg/mL

O=C(Nc1cc2sc3cc(NC(=O)c4ccc5c(c4)C(=O)c4ccccc4C5=O)c(C(=O)O)cc3c2cc1C(=O)O)c1ccc2c(c1)C(=O)c1ccccc1C2=O.[Na].[Na] [Example 4, 3,7-Bis{[(9,10-dihydro-9,10-dioxo-2-anthracenyl)carbonyl]-amino}dibenzothiophene-2,8-dicarboxylic acid, disodium]
Inhibition of Corneal Neovascularization ([2]; Day 4): 55% | Inhibition of Corneal Neovascularization ([2]; Day 8): 38% | Inhibition of Corneal Neovascularization ([2]; Day 11): 40% | Inhibition of Corneal Neovascularization ([2]; Day 13): 23% | IC50 (KDR): 0.2 µg/mL

COc1ccc(/C=C/C(=O)Nc2cc3sc4cc(NC(=O)/C=C/c5ccc(OC)cc5)c(C(=O)O)cc4c3cc2C(=O)O)cc1 [Example 12, 3,7-Bis{[3-(4-methoxyphenyl)acryloylamino]-dibenzothiophene-2,8-dicarboxylic Acid, disodium salt]
Inhibition of Corneal Neovascularization ([2]; Day 4): 41% | Inhibition of Corneal Neovascularization ([2]; Day 8): 41% | Inhibition of Corneal Neovascularization ([2]; Day 11): 34% | Inhibition of Corneal Neovascularization ([2]; Day 13): 8% | IC50 (KDR): 4.9 µg/mL

COc1ccc(C=CC(=O)Nc2cc3sc4cc(NC(=O)C=Cc5ccc(OC)c(OC)c5Cl)c(C(=O)[O-])cc4c3cc2C(=O)[O-])c(Cl)c1OC.[Na+].[Na+]
Inhibition of Corneal Neovascularization ([2]; Day 4): 11% | Inhibition of Corneal Neovascularization ([2]; Day 8): 24% | Inhibition of Corneal Neovascularization ([2]; Day 11): 29% | Inhibition of Corneal Neovascularization ([2]; Day 13): 37%

COc1ccccc1C=CC(=O)Nc1cc2c(cc1S(=O)(=O)O)-c1cc(S(=O)(=O)O)c(NC(=O)C=Cc3ccccc3OC)cc1S2(=O)=O [Example 37, 3,7-Bis-[3-(2-methoxyphenyl)-acryloylamino]-5,5-dioxo-5H-5^6-dibenzothiophene-2,8-disulfonic acid, disodium salt]
IC50 (KDR): 2 µg/mL

O=C(/C=C/c1cccc(O)c1)Nc1cc2c(cc1S(=O)(=O)O)-c1cc(S(=O)(=O)O)c(NC(=O)/C=C/c3cccc(O)c3)cc1S2(=O)=O [Example 31, 3,7-Bis-[(E)-3-(3-hydroxy-phenyl)acryloylamino]-5,5-dioxo-5H-5^6-dibenzothiophene-2,8-disulfonic acid, disodium]
IC50 (KDR): 5 µg/mL

O=C(/C=C/c1ccncc1)Nc1cc2c(cc1S(=O)(=O)O)-c1cc(S(=O)(=O)O)c(NC(=O)/C=C/c3ccncc3)cc1S2(=O)=O [Example 28, 5,5-Dioxo-3,7-bis-(3-pyridin-4-ylacryloylamino)-5H-5^6-dibenzothiophene-2,8-disulfonic acid, disodium salt]
IC50 (KDR): 2.5 µg/mL

O=C(/C=C/c1ccc(-c2ccccc2)cc1)Nc1cc2sc3cc(NC(=O)/C=C/c4ccc(-c5ccccc5)cc4)c(C(=O)O)cc3c2cc1C(=O)O [Example 9, 3,7-Bis-(3-biphenyl-4-ylacryloylamino)dibenzothiophene-2,8-dicarboxylic Acid, disodium salt]
IC50 (KDR): 3.4 µg/mL

O=C(Nc1cc2c(cc1S(=O)(=O)O)-c1cc(S(=O)(=O)O)c(NC(=O)c3cnn(-c4ccccc4)n3)cc1S2(=O)=O)c1cnn(-c2ccccc2)n1 [Example 46, 5,5-Dioxo-3,7-bis-[(2-phenyl-2H-[1,2,3]triazole-4-carbonyl)amino]-5H-5^6-dibenzothiophene-2,8-disulfonic acid, disodium salt]
IC50 (KDR): 5 µg/mL

O=Cc1ccc(/C=C/C(=O)Nc2cc3c(cc2S(=O)(=O)O)-c2cc(S(=O)(=O)O)c(NC(=O)/C=C/c4ccc(C=O)cc4)cc2S3(=O)=O)cc1 [Example 29, 3,7-Bis-[3-(4-formylphenyl)-acryloylamino]-5,5-dioxo-5H-5^6-dibenzothiophene-2,8-disulfonic acid, disodium salt]
% Control ([1]; 4 hr prior to VEGF): 81% | Lesion Area (measured area of vascular permeability) ([1]; 4 hr prior to VEGF): 76.5 mm^2 | IC50 (KDR): 0.5 µg/mL

COc1ccc(/C=C/C(=O)Nc2cc3sc4cc(NC(=O)/C=C/c5ccc(OC)c(OC)c5OC)c(C(=O)O)cc4c3cc2C(=O)O)c(OC)c1OC [Example 11, 3,7-Bis-[3-(2,3,4-trimethoxyphenyl)acryloylamino]dibenzothiophene-2,8-dicarboxylic Acid, disodium salt]
IC50 (KDR): 1.7 µg/mL

CCOc1cc2ccccc2cc1C(=O)Nc1cc2c(cc1S(=O)(=O)O)-c1cc(S(=O)(=O)O)c(NC(=O)c3cc4ccccc4cc3OCC)cc1S2(=O)=O [Example 53, 3,7-Bis-(3-ethoxy-naphthalen-2-ylcarbonylamino)-5,5-dioxo-5H-5^6-dibenzothiophene-2,8-disulfonic acid, disodium salt]
IC50 (KDR): 7 µg/mL

O=C(/C=C/c1cccc(C(F)(F)F)c1)Nc1cc2c(cc1S(=O)(=O)O)-c1cc(S(=O)(=O)O)c(NC(=O)/C=C/c3cccc(C(F)(F)F)c3)cc1S2(=O)=O [Example 38, 3,7-Bis-[3-(3-trifluoromethyl-phenyl)acryloyl-amino]-5,5-dioxo-5H-5^6-dibenzothiophene-2,8-disulfonic acid, disodium salt]
IC50 (KDR): 5 µg/mL

O=C(Nc1cc2sc3cc(NC(=O)c4cc5ccccc5s4)c(C(=O)O)cc3c2cc1C(=O)O)c1cc2ccccc2s1 [Example 2, 3,7-Bis-r(benzo[b]thiophene-2-carbonyl)amino]dibenzothiophene-2,8-dicarboxylic acid, disodium salt]
% Control ([1]; 4 hr prior to VEGF): 57% | Lesion Area (measured area of vascular permeability) ([1]; 4 hr prior to VEGF): 34.0 mm^2 | IC50 (KDR): 1.5 µg/mL

O=C(C=Cc1ccc(-c2ccccc2)cc1)Nc1cc2c(cc1S(=O)(=O)O)-c1cc(S(=O)(=O)O)c(NC(=O)C=Cc3ccc(-c4ccccc4)cc3)cc1S2(=O)=O [Example 24, 3,7-Bis-[3-(4-phenylphenyl)acryloylamino]-5,5-dioxo-5H-5λ^6-dibenzothiophene-2,8-disulfonic acid, disodium salt]
% Control ([1]; 1 hr prior to VEGF): 55% | Lesion Area (measured area of vascular permeability) ([1]; 1 hr prior to VEGF): 25.8 mm^2 | % Control ([1]; 2 hr prior to VEGF): 80% | Lesion Area (measured area of vascular permeability) ([1]; 2 hr prior to VEGF): 37.8 mm^2 | % Control ([1]; 4 hr prior to VEGF): 49% | Lesion Area (measured area of vascular permeability) ([1]; 4 hr prior to VEGF): 23.1 mm^2 | IC50 (KDR): 0.8 µg/mL

CCOP(=O)(O)c1cc2c(cc1NC(=O)c1cc3ccccc3s1)S(=O)(=O)c1cc(NC(=O)c3cc4ccccc4s3)c(P(=O)(O)OCC)cc1-2 [Example 23a, [3,7-Bis[(benzo[b]thiophene-2-carbonyl)amino-8-(ethoxyhydroxyphosphoryl)-5,5-dioxo-5H-5λ^6-dibenzothiophen-2-yl]phosphonic acid monoethyl ester, disodium salt]
Inhibition of Corneal Neovascularization ([2]; Day 4): 70% | Inhibition of Corneal Neovascularization ([2]; Day 8): 55% | Inhibition of Corneal Neovascularization ([2]; Day 11): 46% | Inhibition of Corneal Neovascularization ([2]; Day 13): 50% | IC50 (KDR): 1.65 µg/mL
